# According to patent US20040039054A1, “Use of L-carnitine and derivatives for reducing ceramide levels and potentiating antiretroviral drugs” (SIGMA-TAU INDUSTRIE, priority 1995, published 2004):
# How the values were obtained:
# HIV = experiment: Viral load in muscle biopsy homogenates of AIDS subjects; assay type: in vivo; conditions: individual patients and group mean
# Procedure: The determinations were carried out prior to the combined treatment, while patients were taking only AZT (T0), after 4 weeks of therapy with the L-carnitine-AZT combination (T1) and one month after discontinuation of treatment with L-carnitine (T2), leaving the patients on AZT alone. TCD4 lymphocytes were measured by flow cytometry by means of a specific monoclonal antibody (number of lymphocytes per mm^3) and the apoptotic lymphocytes by flow cytometry after staining with propydium iodide, quantifying the cells with hypodiploid nuclei (number of lymphocytes per 50,000 cells). The viral load (number of viral particles per ml of serum) was determined by quantifying HVI-1 RNA by means of a polymerase chain reaction (Amplicor HIV detection system by Roche). The Wilcoxon test was used for the statistical processing.
# (§1) Four subjects with AIDS were treated with 600 mg of AZT daily by mouth. Of these, two were also treated with L-carnitine 3 g daily. The total duration of the treatment was 6 months. Muscle biopsies were performed before and after treatment. The ceramide present at muscle cell level was determined before and after treatment, after sonicating and homogenizing the biopsy material. The viral load was determined in the same muscle homogenates, as described in Example 1.
# ceramide = experiment: Ceramide at muscle cell level in muscle biopsy homogenates of AIDS subjects; assay type: in vivo, human; conditions: muscle biopsy before treatment (baseline), individual patients and group mean
# Procedure: as §1
# lymphocyte ceramide = experiment: Lymphocyte ceramide by DAG (diacylglycerol) kinase assay in AIDS patients; assay type: in vivo, human
smiles,measurement,setting,value
"Cc1cn([C@H]2C[C@H](N=[N+]=[N-])[C@@H](CO)O2)c(=O)[nH]c1=O [AZT, zidovudine]",Post-treatment HIV (viral particles/mg protein),"HIV; muscle homogenate after 6 months, AZT 600 mg daily by mouth, with or without L-carnitine 3 g daily","4,950 viral particles/mg protein"
same,Pre-treatment HIV (viral particles/mg protein),HIV; muscle homogenate before treatment (baseline),"4,850 viral particles/mg protein"
same,Pre-treatment ceramide (pmoL/mg protein),ceramide,92 pmoL/mg protein
same,"levels of lymphocyte ceramide, T0","lymphocyte ceramide; T0: prior to combination treatment, patients on AZT only, 13 patients",48±8 pmol/10^6 lymphocytes
same,"levels of lymphocyte ceramide, T2","lymphocyte ceramide; T2: one month after discontinuation of L-carnitine, patients on AZT alone",38±9 pmol/10^6 lymphocytes
